Assay results from patent US9750708B2 (The Regents of the University of California, priority 2006, dated 2017).
Values belong to the compound of their own block, whether it stands above or below them.

Columns and labels:
[1] = Plasma cysteamine after delivery of cysteamine through a nasoenteric tube into stomach, small intestine or cecum; assay type: in vivo; details: human, 10 mg/kg/dose of base, Mean plasma cysteamine Cmax
Method: Adult control patients were recruited locally. […] None of the patients had undergone kidney transplantation. Baseline chemistry, Helicobacter pylori serologic study, complete blood count, and urinalysis were performed.
(§1) Immediately proximal to the balloon was an infusion port (1 mm diameter) through which the drug was delivered. […] On day 1 of the study, the nasoenteric tube was inserted into the stomach. By day 3 of the study the tube had passed into the proximal small intestine (SI) just distal to the ligament of Treitz (confirmed fluoroscopically). The balloon was then inflated, and peristalsis propelled the tube distally. Tube position within the cecum was confirmed fluoroscopically on day 5 (day 7 in 4 patients because of slow transit). If the tube had migrated too far, it was retracted into the desired location.
(§2) After an overnight fast (except for water) blood samples were taken at baseline and at varying intervals after intraluminal delivery of cysteamine. […] Gastrin was measured in picograms/mL with the Diagnostic Products Corporation (Los Angeles, Calif.) gastrin radioimmunoassay-assay kit. Leukocyte cystine levels were measured in nmol half-cystine per mg protein by the Cystine Determination Lab (La Jolla, Calif.).
Differences between means for the 3 sites were tested, plus group and group x site interaction effects for the combined groups. If a site effect was detected, Tukey's HSD was applied to determine which sites differed from each other.

gastrin = experiment: Serum gastrin after intraluminal delivery of cysteamine (radioimmunoassay); assay type: in vivo, human
From the text: as §1, §2
REML repeated measures analyses of variance were also performed as described above on gastrin levels. […] A 5% significance level was used without adjustment for all statistical testing.

leukocyte cystine [2] = experiment: Leukocyte cystine levels after intraluminal delivery of cysteamine in patients with cystinosis; assay type: in vivo, human
From the text: as §1, §2
AOC is computationally analogous to area under the curve, but it is applied when values are predominantly decreasing below baseline values. Large AOC values reflect large decreases, and a negative AOC reflects a net increase in value. Main effects for site of delivery, time after delivery, and the interaction between site and time were tested, except just the site effect was tested for AOCs. In the absence of significant interaction when a main effect was detected, Tukey's honestly significant difference test (HSD) was applied to identify where differences occurred within a 5% family wise error rate. The Tukey HSD procedure controls for overall significance level when performing all pairwise comparisons.

leukocyte cystine [3] = details: cited from earlier work
[4] = Symptoms after intraluminal cysteamine delivery; assay type: in vivo, human; details: cystinosis subject
From the text: as §1
Only 2 patients (1 male, 1 female) with cystinosis reported regular GI symptoms before the study, and these had responded to acid-suppression therapy. […] No other symptoms were reported after any other cysteamine delivery in the children with cystinosis. There were no associated adverse events with tube placement or removal.

[5] = children with cystinosis; cited from earlier work
[6] = tested on: mice with the gene mutation for Huntington's disease; details: mouse, in vivo; cited from earlier work

Cmax ([1]; other: infused through nasoenteric tube into cecum, combined cystinosis and control subjects, delivery into cecum): 22.5 µM
Cmax ([1]; other: infused through nasoenteric tube into cecum, control subjects, delivery into cecum): 23.1 µM
Cmax ([1]; other: infused through nasoenteric tube into cecum, cystinosis subjects, delivery into cecum): 21.9 µM
Cmax ([1]; other: infused through nasoenteric tube into small intestine, combined cystinosis and control subjects, delivery into small intestine): 53.2 µM
Cmax ([1]; other: infused through nasoenteric tube into small intestine, control subjects, delivery into small intestine): 51.1 µM
Cmax ([1]; other: infused through nasoenteric tube into small intestine, cystinosis subjects, delivery into small intestine): 55.8 µM
Cmax ([1]; other: infused through nasoenteric tube into stomach, combined cystinosis and control subjects, delivery into stomach): 37.8 µM
Cmax ([1]; other: infused through nasoenteric tube into stomach, control subjects, delivery into stomach): 39.5 µM
Cmax ([1]; other: infused through nasoenteric tube into stomach, cystinosis subjects, delivery into stomach): 35.5 µM
Gastrin level after gastric cysteamine (gastrin; 1 child with severe GI symptoms, 30 minutes after gastric delivery, baseline 70 pg/mL): 121 pg/mL
Gastrin levels, baseline and post-cysteamine (undetectable) (gastrin; control group, more than half of the levels, any delivery site): < 25 pg/mL
Symptoms after infusion into the proximal small intestine [4]: did not have any symptoms
Structure (SMILES): NCCS [cysteamine]
Time leukocyte cystine levels remained at the 1-hour level (leukocyte cystine [2]; after delivery, at 48 hours not returned to pre-cysteamine level): 24 h
Time leukocyte cystine levels remained below pre-delivery levels (leukocyte cystine [2]; single dose of cysteamine into the small intestine (FIG. 3)): up to 12 hours
Decrease in leukocyte cystine after cysteamine delivery (leukocyte cystine [2]; within an hour of delivery): dramatic decrease in leukocyte cystine
Period of activity (leukocyte cystine [3]; oral Cystagon capsules): 5 to 6 h
Time leukocyte cystine level remained suppressed (leukocyte cystine [3]; single dose administered intravenously): more than 24 hours
Depletion of intracellular cystine (leukocyte cystine [3]; taken regularly, measured in circulating white blood cells): up to 90%
Symptoms after intragastric cysteamine ([4]; about 15 minutes after delivery): severe retching and emesis

Structure (SMILES): COc1ccc2c(c1)c(CC(=O)O)c(C)n2C(=O)c1ccc(Cl)cc1 [indomethacin]
Reduction of urine volume and liquid consumption [5]: about 30%

Structure (SMILES): NCCSSCCN [Cystamine, cystamine]
Effect in mice with the gene mutation for Huntington's disease [6]: alleviate tremors and prolong life
